Series [1] in a line: Photostability under UVA + UVB radiation. In kind it is physicochemical. The note with it: for variation in absorbance after irradiation: UVA + UVB, up to 15 min. Here is the method:
Three independent compound solutions (100 µM) were prepared and exposed to light. A volume of 50 mL of each sample replicate was exposed side-by-side under a UV lamp at a […] distance through an appropriate duration of time. These conditions were monitored using calibrated radiometers. The lamp used as light source for the photostability assay emitted an irradiance of 0.62 mW/cm^2 and 0.74 mW/cm^2 of UVA and UVB light, respectively. A UV lamp (Osram, Ultra-Vitalux, 300 W) was positioned at a height of 54 cm. The UV lamp was turned on 1 h before the experiment, and the UVA and UVB irradiances were measured, maintaining the controlled temperature. At the end of the exposure period, the absorbance spectrum was measured between 200 nm and 800 nm using a UV–vis spectrophotometer. The exposed samples were analyzed concomitantly with protected samples (dark controls). Photostability was evaluated by comparing the UV–vis spectra at each evaluation time for each antioxidant.

A short description of series [2]: DSC thermal analysis and compatibility with excipients. It counts as physicochemical. Conditions: for compatibility with Carbopol 980 (CP) / compatibility with EDTA / compatibility with hydroxyethylcellulose (HEC) / compatibility with miglyol 812 (MIG) / compatibility with stearyl alcohol (SA) / compatibility with tocopherol (TP): 1:1 (w/w) mixture; for Tonset / Tpeak / ΔH: compound alone, 10 °C/min, nitrogen. Here is the method: A differential scanning calorimeter (DSC) 200F3 Maia (Netzsh-Gerätebau GmbH, Selb, Germany) was used for thermal analysis of the ingredients and mixtures. Typical excipients of topical formulations with different functions were selected for this study. The physical mixtures between compounds and the excipients were prepared in a ratio of 1:1 (w/w). Individual samples and the physical mixtures were weighed directly in the pierced DSC aluminum pan and scanned in the temperature range of 20–400 °C under nitrogen atmosphere with flow of 40 mL/min, with a heating rate of 10 °C/min. An empty aluminum pan was used as reference. The onset temperature and melting enthalpy (ΔH) were calculated using Proteus Analysis software (Version 6.1, NETZSCH-Gerätebau GmbH, Germany). The DSC cell was calibrated (sensitivity and temperature calibration) with Hg (m.p. −38.8 °C), In (m.p. 156.6 °C), Sn (m.p. 231.9 °C), Bi (m.p. 271.4 °C), Zn (m.p. 419.5 °C), and CsCl (m.p. 476.0 °C) as standards.
A general note: In DSC, transitions show as peaks or steps in heat flow.

Series [3] concerns THP-1 cells (DNFB-induced CD54 and CD86 expression). In words: Inhibition of THP-1 maturation induced by the allergen DNFB (anti-allergic activity). In kind it is cell-based, human. The note with it: DNFB 8 µM. Here is the method: The human keratinocytes (HaCaT, CLS 300493, Eppelheim, Germany) cell line was cultured with Dulbecco’s Modified Eagle’s Medium (DMEM) (Sigma-Aldrich, St. Louis, MO, USA), supplemented with 10% (v/v) of heat-inactivated fetal bovine serum (FBS), 1% (v/v) antibiotic solution (from a 10,000 U/mL penicillin and 10,000 μg/mL streptomycin stock) (Gibco, Carlsbad, CA, USA), 3.7 g/L sodium bicarbonate, and 1 mM sodium pyruvate (Sigma-Aldrich, St. Louis, MO, USA). The cell culture of keratinocytes was detached with EDTA solution 1X (Sigma-Aldrich, St. Louis, MO, USA) when the cells reached 70–80% confluence in cell culture flasks. The mouse macrophage cell line (RAW 264.7, ATCC TIB-71, Manassas, VA, USA) was cultured in DMEM supplemented with 10% (v/v) non-inactivated FBS, 1% (v/v) antibiotic solution, 1.5 g/L sodium bicarbonate, and 1 mM sodium pyruvate. Macrophages were mechanically detached with a cell scraper and subcultured in (1:10) proportion of cellular suspension to a final volume of DMEM. The human monocytic cell line THP-1 (ATCC® TIB-202™, American Type Culture Collection, Manassas, VA, USA) was cultivated in RPMI 1640 supplemented with 10% inactivated FBS, 25 mM (D)-glucose, 10 mM HEPES, 1 mM sodium pyruvate, 100 U/mL penicillin, and 100 μg/mL streptomycin, and maintained at a cell density of 0.4 × 10^6 cells/mL. Cells were subcultured every 2 or 3 days and maintained in culture for 2–3 months, according to ATCC® instructions.
Following OECD guidelines, researchers utilized the THP-1 human monocyte cell line as a substitute for dendritic cells (DCs) to assess skin sensitization potential. Adapting OECD Test Guideline No. 442E [24], cell density was adjusted to 5.0 × 10^5 cells/mL and allowed to stabilize overnight at 37 °C. Then, 1.5 mL/well of cell suspension was added to a 12-well plate, and solutions of AA, AAG, and AAGS (500 µM) were applied. After 1 h of pre-incubation, a solution of DNFB was added (8 µM), and the cells were further incubated for 24 h. Afterwards, the cells were centrifuged at 300× g for 5 min, the supernatant was discarded, and the cell pellet was washed with PBS containing 1% FBS (2 × 1 mL) and centrifuged. The cell pellet was resuspended in 1 mL of PBS/1% FBS and 200 µL were collected in two microtubes: 100 µL for the unstained (UNST) and 100 µL for the stained (CD5486) conditions. For each stained condition, anti-CD54-APC and anti-CD86-Alexa Fluor 488 (BioLegend, London, UK) were added, and the cells were incubated for 30 min at 4 °C, protected from light. Then, cells were washed twice with 1 mL PBS/1% FBS solution and centrifuged. The cell pellet was further resuspended in 100 µL of PBS and analyzed by flow cytometry using a BD Accuri™ C6 cytometer (San Jose, CA, USA).
CD86 and CD54 levels were analyzed by flow cytometry using the acquisition channels FL1 and FL4. Mitochondrial O2^− production was measured by flow cytometry using the acquisition channel FL2. The relative fluorescence intensity (RFI) of CD86 and CD54 (THP-1 maturation assay) and MitoSOX (mitochondrial antioxidant activity) in the control and chemical-treated cells, based on the geometric mean fluorescence intensity (MFI), was calculated according to the following equation: RFI=MFI of chemical treated cells−MFI of chemical treated unstained cells/MFI of control treated cells−MFI of control unstained cells ×100
The results of at least three independent experiments were represented as a percentage of the control RFI, which was assumed to be 100%.

[4] abbreviates: compound 500 µM, 1 h pre-incubation, 24 h, mean ± SEM.

Entries after “also recorded” stand apart in the source; their conditions may differ.

As to `O=C1O[C@H]([C@@H](O)CO)C(O)=C1O` [AA, Ascorbic acid], the “increase of absorbance (hyperchromic effect)” value in series [1] (after 5 min of UV exposure (UVA + UVB)) was ~50%. Moreover, in series [2], the “compatibility with Carbopol 980 (CP)” value is listed as “Weak interferences”, the “compatibility with EDTA” value was “Weak interferences”, the Tonset is 192.9 °C and the Tpeak stood at 197.1 °C. For the same compound, the ΔH in series [2] was -328.6 J/g. Further, the “anti-allergic profile regarding CD86” value in series [3] (500 µM) was “exhibited anti-allergic profile”.
For `O=C1O[C@H]([C@@H](O)CO)C(O)=C1O[C@H]1O[C@H](CO)[C@@H](O)[C@H](O)[C@H]1O` [AAG, 2-O-α-D-glucopyranosyl-L-ascorbic acid], the “variation in absorbance after irradiation” value in series [1] is listed as “slight variation in the absorbance”. Moreover, in series [2], the “compatibility with EDTA” value is “more compatible”, the “compatibility with hydroxyethylcellulose (HEC)” value is given as “Weak interferences”, the “compatibility with miglyol 812 (MIG)” value is reported as “more compatible” and the “compatibility with stearyl alcohol (SA)” value is on record as “Weak interferences”. Moreover, in series [2], the “compatibility with tocopherol (TP)” value was “more compatible”, the Tonset stood at 173.0 °C, the Tpeak was 176.4 °C and the ΔH is -139.8 J/g. Moreover, the “RFI of CD54 expression, DNFB-induced maturation” value in series [3] (setting [4]) is recorded as 995.78% ± 80.51%.
`O=C1OC(C(COS(=O)(=O)O)OS(=O)(=O)O)C(OS(=O)(=O)O)=C1OC1OC(COS(=O)(=O)O)C(OS(=O)(=O)O)C(OS(=O)(=O)O)C1OS(=O)(=O)O` [AAGS, 2-O-α-D-glucopyranosyl-L-ascorbic acid persulfate]: the “variation in absorbance after irradiation” value in series [1] is on record as “practically imperceptible”. In series [2], the “compatibility with Carbopol 980 (CP)” value was “Weak interferences”, the “compatibility with hydroxyethylcellulose (HEC)” value is given as “more compatible; also recorded: favorable compatibility”, the “compatibility with miglyol 812 (MIG)” value was “more compatible” and the “compatibility with stearyl alcohol (SA)” value was “Weak interferences”. For the same compound, in series [2], the “compatibility with tocopherol (TP)” value is on record as “more compatible”, the Tonset was found to be 195.0 °C, the Tpeak was found to be 200.5 °C and the ΔH stood at 223.1 J/g. For the same compound, in series [3] (500 µM), the “anti-allergic profile regarding CD86” value is “exhibited anti-allergic profile” and the “inhibition of DNFB-induced maturation of THP-1 cells” value was “anti-allergic activity”. Besides, in series [3] (setting [4]), the “RFI of CD54 expression, DNFB-induced maturation” value is 986.89% ± 80.51% and the “RFI of CD86 expression, DNFB-induced maturation” value was 168.90% ± 16.30%.
